Positions of bridges follow the written chain, without caps; N, C: chain ends. Non-standard residues stand in square brackets, D forms with d. Residues, ends and D or L forms follow the SMILES beside them.
Tests used:
[1] = Chemical stability assay in DMEM with 10% FBS; type: in vitro ADME; settings: bovine, 37° C., values represent 95% confidence intervals
Experimental: These assays were conducted by Pharmaron Beijing CO., Ltd. Cyclic peptides working solutions were prepared at 10 μM in DMEM with 10% FBS (Avantor, Cat #76294-180) or human plasma (Pooled, Male & Female, BioIVT, Cat #HMN666664). The assays were performed in duplicate. Vials were incubated at 37° C. at 60 rpm in a water bath and taken at designated time points including 0, 480, 1080 and 1440 min. For each time point, the initiation of the reaction was staggered so all the time points were terminated with cold acetonitrile containing internal standards (IS, 100 nM alprazolam, 200 nM labetalol, 200 nM Imipramine and 2 μM ketoplofen) at the same time. Samples were vortexed then centrifuged at 4° C. to remove proteins. The supernatants from centrifugation were diluted by ultra-pure H2O and used for LC-MS/MS analysis. All calculations were carried out using GraphPad Prism. Remaining percentages of parent compounds at each time point were estimated by determining the peak area ratios from extractedion chromatograms.

Gαs = Gαs (Homo sapiens, UniProt P63092); assay: GDP dissociation assay ([3H]GDP); type: biochemical; parameters: made in house; host or cells: Escherichia coli BL21(DE3)
Experimental: Gα proteins were diluted to 400 nM in the EDTA buffer (20 mM HEPES 7.5, 150 mM NaCl, 1 mM EDTA-Na 8.0, 2 mM DTT). [^3H]GDP (1 mCi/mL, 25.2 μM) was added to a final concentration of 1.2 μM, followed by cyclic peptides addition. After incubation at 20° C. for 30 minutes, the same volume of assay buffer ([…] HEPES-Na 7.5, 150 mM NaCl, 2 mM MgCl2, and 1 mM GDP) was added to initiate [^3H]GDP dissociation. At various points, […] was removed and mixed with 390 μL of ice-cold wash buffer (20 mM HEPES 7.5, 150 mM NaCl, 20 mM MgCl2). The mixture was immediately filtered through a mixed cellulose membrane (25 mm, 0.22 μm) held by a microanalysis filter holder (EMD Millipore). The membrane was washed by ice-cold wash buffer (500 μL×3), put in a 6-mL plastic vial and air-dried (room temperature 1.5 h). 5 mL of CytoScint-ES Liquid Scintillation Cocktail was added to each vial. After incubation overnight at room temperature, the vial was used for liquid scintillation counting with a LS 6500 Multi-Purpose Scintillation Counter.
The GDP dissociation curves were fitted by the software GraphPad Prism using the following equation to calculate the dissociation rates (koff): […]
in which “Y” is the radioactivity (Counts per minute) of the sample at time “X” (minutes), and Y0 is the calculated radioactivity of the sample at the time point 0.

GppNHp-bound Gαs = GppNHp-bound Gαs (Homo sapiens, UniProt P63092); assay: Adenylyl cyclase activity assay (Gαs-mediated adenylyl cyclase activation, cAMP production, LANCE Ultra cAMP kit); type: biochemical; parameters: made in house; host or cells: Escherichia coli BL21(DE3); settings: 6.25 μM of GN13; in the presence of Gβ1/γ2
From the text: Active state binding cyclic peptide GN13 blocks Gαs-mediated adenylyl cyclase activation. In order to determine whether (Gαs/GppNHp) specific binders inhibit Gαs activity, we assayed the ability of Gαs to activate its downstream effector adenylyl cyclase (AC) (FIG. 17A). We refer to resynthesized active state binding cyclic peptides with a “GN” (Gαs/GppNHp) preceding their ranking number. […] We then evaluated the inhibitory effect of the top hits on Gαs-mediated adenylyl cyclase activation by measuring production of cAMP in a reconstituted Gαs activity assay (FIG. 17A). […] Cyclic peptides dose dependent inhibition (FIG. 17C). […] WT Gαs at a concentration of 8.5 mg/mL (about 190 μM) in 20 mM HEPES 8.0, 150 mM NaCl, 5 mM MgCl2, 1 mM EDTA-Na 8.0 was diluted to 0.5 μM in dilution buffer (1× PBS 7.4, 0.1% BSA, 1 mM EDTA-Na 8.0, 2 mM DTT, 0.1 mM MgCl2) plus 1 mM GppNHp. […] Reaction mixture was further incubated at room temperature for 2 hours and placed on ice for 5 minutes. cAMP production was initiated by addition of […] of ATP stock (1 mM ATP, 1× PBS 7.4, 0.1% BSA). The reaction was carried out at 30° C. for 10 minutes in a PCR machine and stopped by heating at 95° C. for 3 minutes. The cAMP concentrations were measured by the LANCE Ultra cAMP kit. […] The cAMP concentrations were measured by the LANCE Ultra cAMP kit. cAMP concentrations measurement by the LANCE Ultra cAMP kit. […]

Gαs, sequence (P63092 1-380 isoform P63092-2): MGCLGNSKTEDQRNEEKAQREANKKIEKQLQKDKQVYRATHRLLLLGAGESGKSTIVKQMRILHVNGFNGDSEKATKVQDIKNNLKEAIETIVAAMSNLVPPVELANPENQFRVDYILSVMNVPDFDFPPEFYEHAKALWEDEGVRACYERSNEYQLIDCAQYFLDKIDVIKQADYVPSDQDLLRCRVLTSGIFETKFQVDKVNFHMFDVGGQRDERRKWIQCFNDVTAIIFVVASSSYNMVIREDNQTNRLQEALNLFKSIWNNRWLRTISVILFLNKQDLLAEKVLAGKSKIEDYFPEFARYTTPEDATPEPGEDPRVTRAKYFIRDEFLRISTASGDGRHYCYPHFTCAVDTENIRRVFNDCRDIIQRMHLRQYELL
GppNHp-bound Gαs, sequence (P63092 1-380 isoform P63092-2): as above

effect on Gαs GDP dissociation rates (koff) (Gαs)	inhibition of adenylyl cyclase activation by Gαs WT (GppNHp-bound Gαs)	SMILES	half-life at 10 μM [1]
		CC[C@H](C)[C@@H]1NC(=O)[C@H](CC(C)C)NC(=O)[C@@H](Cc2ccc(O)cc2)NC(=O)CSC[C@@H](C(=O)NCC(N)=O)NC(=O)[C@@H]2CCCN2C(=O)[C@H](CC(C)C)NC(=O)[C@H](CC(N)=O)NC(=O)[C@H](CC(C)C)NC(=O)[C@H](C)NC(=O)[C@H](Cc2c[nH]c3ccccc23)NC(=O)[C@H](CCC(N)=O)NC(=O)[C@H](CCCNC(=N)N)NC(=O)[C@H](Cc2ccccc2)NC(=O)[C@H]([C@@H](C)O)NC1=O [GD20-F10L] ({CH2CO}-[dY]LITFRQWALNLPCG-NH2; thioether N-14)	37.4 to 50.3 h
only slightly influenced	inhibits	CC[C@H](C)[C@@H]1NC(=O)[C@H](C)NC(=O)[C@H](Cc2ccc(O)cc2)NC(=O)[C@H](C(C)C)NC(=O)[C@H](CO)NC(=O)[C@H](CCC(=O)O)NC(=O)[C@H](Cc2ccccc2)NC(=O)[C@@H](Cc2ccc(O)cc2)NC(=O)CSC[C@@H](C(=O)NCC(N)=O)NC(=O)[C@H](CC(C)C)NC(=O)[C@H]([C@@H](C)O)NC(=O)CNC(=O)[C@H](Cc2c[nH]c3ccccc23)NC1=O [GN13] ({CH2CO}-[dY]FESVYAIWGTLCG-NH2; thioether N-13)	

Source: US20240336657A1, “G-ALPHA-S PEPTIDE INHIBITORS AND USES THEREOF” (The Regents of the University of California, priority 2021, published 2024)
